From article PMC8849072, “Sudapyridine (WX-081), a Novel Compound against Mycobacterium tuberculosis” (Microbiology Spectrum, 2022)
In brackets after ≈: the same amount, converted by molar mass.

How the values were obtained:
[1] = tested on: M. tuberculosis susceptible strain 14241; test: MIC by microplate alamarBlue assay (MABA); format: cell-based, Mycobacterium tuberculosis; conditions: Mycobacterium tuberculosis
[2] = tested on: M. tuberculosis susceptible strain 14242; test: MIC by microplate alamarBlue assay (MABA); format: cell-based, Mycobacterium tuberculosis; conditions: Mycobacterium tuberculosis
[3] = tested on: M. tuberculosis susceptible strain 14280; test: MIC by microplate alamarBlue assay (MABA); format: cell-based, Mycobacterium tuberculosis; conditions: Mycobacterium tuberculosis
[4] = tested on: M. tuberculosis susceptible strain 14286; test: MIC by microplate alamarBlue assay (MABA); format: cell-based, Mycobacterium tuberculosis; conditions: Mycobacterium tuberculosis
[5] = tested on: M. tuberculosis susceptible strain 14480; test: MIC by microplate alamarBlue assay (MABA); format: cell-based, Mycobacterium tuberculosis; conditions: Mycobacterium tuberculosis
[6] = tested on: M. tuberculosis H37Rv; test: MIC by microplate alamarBlue assay (MABA); format: cell-based, Mycobacterium tuberculosis; conditions: Mycobacterium tuberculosis, H37RV
[7] = tested on: M. tuberculosis H37Rv and two clinical isolates (14619, 14242); test: Time-kill curve analysis; format: cell-based, Mycobacterium tuberculosis; conditions: up to 14 days culture
[8] = Pharmacokinetic study in mice; format: in vivo, BALB/c mice; conditions: for half-life: plasma; for half-life / At 96 h lung/plasma: lung / At 96 h lung/plasma: plasma: Mice; for At 96 h lung/plasma: lung: lung exposure at 96 h (first number of the pair); for At 96 h lung/plasma: plasma: plasma exposure at 96 h (second number of the pair)
Method: (§1) The BALB/c mice, rats, and beagle dogs were used in the PK study and fasted overnight before dosing. Animal doses were administered in two ways. […] Plasma samples were collected from three animals at each time point. Plasma concentrations were determined by liquid chromatography-tandem mass spectrometry (LC-MS/MS). The bioanalytical method by LC-MS/MS for pharmacokinetic (PK) studies in animal and toxicokinetic (TK) in tox studies have been validated. The total area under the concentration-time curve (AUC0-inf), the elimination half-time (t1/2), the peak concentration (Cmax), and the time to reach peak concentration (Tmax) of samples were determined directly from the experimental data using WinNonlin V6.2.1.

[9] = Pharmacokinetic study in rats; format: in vivo, rat; conditions: for At 96 h lung/plasma: lung / At 96 h lung/plasma: plasma / half-life: Rat; for At 96 h lung/plasma: lung: lung exposure at 96 h (first number of the pair); for At 96 h lung/plasma: plasma: plasma exposure at 96 h (second number of the pair); for half-life: plasma
Method: as §1

[10] = Pharmacokinetic study in beagle dogs; format: in vivo; conditions: dog; for AUC(0-inf): AUC0-inf; for half-life: plasma
Method: The BALB/c mice, rats, and beagle dogs were used in the PK study and fasted overnight before dosing. Animal doses were administered in two ways. One is oral administration, configured to form a 6.25 mg/kg WX-081, with 0.5% carboxymethylcellulose (CMC), the other is the WX-081 with an intravenous injection of 1.0 mg/kg (formulated in 40% hydroxypropyl-β-cyclodextrin and 50 mM citrate buffer at pH 3). Plasma samples were collected from three animals at each time point. Plasma concentrations were determined by liquid chromatography-tandem mass spectrometry (LC-MS/MS). The bioanalytical method by LC-MS/MS for pharmacokinetic (PK) studies in animal and toxicokinetic (TK) in tox studies have been validated. The total area under the concentration-time curve (AUC0-inf), the elimination half-time (t1/2), the peak concentration (Cmax), and the time to reach peak concentration (Tmax) of samples were determined directly from the experimental data using WinNonlin V6.2.1.

[11] = Preliminary in vivo toxicity study in mice
Method: Before the in vivo activity test, a preliminary in vivo toxicity study was conducted. All mice tolerated WX-081 at the administered doses. No adverse events were found.

[12] = tested on: M. tuberculosis H37Rv; format: in vivo, BALB/c mice; conditions: acute model
[13] = tested on: M. tuberculosis H37Rv; format: in vivo, BALB/c mice
[14] = 14-day repeated oral dose toxicity and toxicokinetic head-to-head study in beagle dogs; format: in vivo, beagle dog
[15] = biological target: T1, human ether-á-go-go-related (hERG) ion channel (Homo sapiens, UniProt Q12809); test: hERG manual patch-clamp assay in hERG-CHO cell; format: cell-based; conditions: parent compound
T1 construct: expressed in transfected cells; host or cells: hERG-CHO cell (CHO cells expressing hERG)
T1 sequence (Q12809 whole entry): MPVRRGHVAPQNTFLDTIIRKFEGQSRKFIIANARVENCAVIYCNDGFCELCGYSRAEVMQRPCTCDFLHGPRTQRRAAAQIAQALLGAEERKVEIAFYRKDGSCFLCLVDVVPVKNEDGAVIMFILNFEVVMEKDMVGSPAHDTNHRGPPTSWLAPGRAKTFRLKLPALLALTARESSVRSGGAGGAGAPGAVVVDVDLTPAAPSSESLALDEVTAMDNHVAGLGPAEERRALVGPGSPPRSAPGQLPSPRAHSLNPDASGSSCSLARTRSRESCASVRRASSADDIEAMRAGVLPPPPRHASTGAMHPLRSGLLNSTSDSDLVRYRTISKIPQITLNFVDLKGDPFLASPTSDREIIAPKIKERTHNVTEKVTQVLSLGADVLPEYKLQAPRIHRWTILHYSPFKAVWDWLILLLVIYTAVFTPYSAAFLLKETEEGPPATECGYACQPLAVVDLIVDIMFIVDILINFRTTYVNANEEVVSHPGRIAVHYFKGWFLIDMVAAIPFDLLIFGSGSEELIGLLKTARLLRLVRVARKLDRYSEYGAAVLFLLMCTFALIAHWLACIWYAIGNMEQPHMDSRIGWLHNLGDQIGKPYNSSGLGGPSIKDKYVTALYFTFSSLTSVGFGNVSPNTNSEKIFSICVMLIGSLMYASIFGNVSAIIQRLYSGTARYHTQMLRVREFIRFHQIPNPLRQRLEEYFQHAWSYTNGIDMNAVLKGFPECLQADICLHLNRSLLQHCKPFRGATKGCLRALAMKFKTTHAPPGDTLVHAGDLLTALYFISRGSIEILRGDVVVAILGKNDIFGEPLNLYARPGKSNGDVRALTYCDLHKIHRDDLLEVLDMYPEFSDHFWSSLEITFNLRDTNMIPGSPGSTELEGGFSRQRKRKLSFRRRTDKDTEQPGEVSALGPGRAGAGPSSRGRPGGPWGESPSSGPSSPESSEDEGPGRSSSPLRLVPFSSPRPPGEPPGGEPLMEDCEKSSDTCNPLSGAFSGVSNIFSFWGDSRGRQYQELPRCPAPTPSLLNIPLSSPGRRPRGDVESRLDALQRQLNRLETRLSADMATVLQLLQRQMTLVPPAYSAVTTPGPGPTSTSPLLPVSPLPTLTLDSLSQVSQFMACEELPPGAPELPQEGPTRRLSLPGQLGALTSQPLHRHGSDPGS
Method: A human ether-á-go-go-related (hERG) ion channel in vitro assay was performed in Shanghai Institute of Materia Medica, Shanghai, for the evaluation of cardiac liability testing. The assay was a manual patch-clamp method using electrophysiology in an hERG-CHO cell.

[16] = tested on: M. tuberculosis susceptible strain 14242; test: MBC determination (CFU-based); conditions: 7 days incubation, 3 log10 CFU decrease
[17] = tested on: M. tuberculosis H37Rv; test: MBC determination (CFU-based); conditions: 7 days incubation, 3 log10 CFU decrease
[18] = BALB/c, mouse, in vivo, iv, 1 mg/kg
[19] = BALB/c, mouse, in vivo, po, 6.25 mg/kg
[20] = beagle dogs, 200 mg/kg oral, 14 days

SMILES: COc1ncc(-c2ccc(Cl)cc2)cc1[C@@H](c1ccccc1)[C@@](O)(CCN(C)C)c1cccc2ccccc12 [WX-081, sudapyridine]
- MIC [1]: 0.117 µg/mL (≈ 0.218 µM)
- MIC [2]: 0.219 µg/mL (≈ 0.408 µM)
- MIC [3]: 0.124 µg/mL (≈ 0.231 µM)
- MIC [4]: 0.152 µg/mL (≈ 0.283 µM)
- MIC [5]: 0.12 µg/mL (≈ 0.223 µM)
- MIC [6]: 0.07 µg/mL (≈ 0.13 µM)
- concentration showing bactericidal effects in time-kill test [7]: ≥ 4 × MIC
- AUC(0-inf) [8, 18]: 4800 ng·h/mL
- AUC(0-t) [8, 18]: 3990 ng·h/mL
- Vd [8, 18]: 10.4 L/kg
- clearance [8, 18]: 3.59 mL/min/kg
- AUC(0-inf) [8, 19]: 11900 ng·h/mL
- AUC(0-t) [8, 19]: 10200 ng·h/mL
- Cmax [8, 19]: 503 ng/mL
- Tmax [8, 19]: 7.33 h
- bioavailability [8, 19]: 40.7%
- half-life ([8]; BALB/c, mouse, Iv. 1.0 mg/kg): 46.3 h
- half-life ([8]; BALB/c, mouse, Po. 6.25 mg/kg): 43.9 h
- At 96 h lung/plasma: lung ([8]; Iv. 1.0 mg/kg): 241
- At 96 h lung/plasma: plasma ([8]; Iv. 1.0 mg/kg): 12.4
- At 96 h lung/plasma: lung ([8]; Po. 6.25 mg/kg): 857
- At 96 h lung/plasma: plasma ([8]; Po. 6.25 mg/kg): 25.3
- At 96 h lung/plasma: lung ([9]; Iv. 1.0 mg/kg): 235
- At 96 h lung/plasma: plasma ([9]; Iv. 1.0 mg/kg): 3.61
- At 96 h lung/plasma: lung ([9]; Po. 5.0 mg/kg): 337
- At 96 h lung/plasma: plasma ([9]; Po. 5.0 mg/kg): 4.74
- half-life ([9]; Iv. 1.0 mg/kg): 25.6 h
- half-life ([9]; Po. 5.0 mg/kg): 29.8 h
- AUC(0-inf) ([9]; rat, in vivo, iv, 1 mg/kg): 2350 ng·h/mL
- AUC(0-t) ([9]; rat, in vivo, iv, 1 mg/kg): 2220 ng·h/mL
- Vd ([9]; rat, in vivo, iv, 1 mg/kg): 9.2 L/kg
- clearance ([9]; rat, in vivo, iv, 1 mg/kg): 8.25 mL/min/kg
- AUC(0-inf) ([9]; rat, in vivo, po, 5 mg/kg): 4310 ng·h/mL
- AUC(0-t) ([9]; rat, in vivo, po, 5 mg/kg): 4080 ng·h/mL
- Cmax ([9]; rat, in vivo, po, 5 mg/kg): 328 ng/mL
- Tmax ([9]; rat, in vivo, po, 5 mg/kg): 1 h
- bioavailability ([9]; rat, in vivo, po, 5 mg/kg): 36.7%
- AUC(0-t) ([10]; in vivo, iv, 0.5 mg/kg): 3610 ng·h/mL
- Vd ([10]; in vivo, iv, 0.5 mg/kg): 6.04 L/kg
- clearance ([10]; in vivo, iv, 0.5 mg/kg): 2.04 mL/min/kg
- AUC(0-inf) ([10]; in vivo, iv, 0.5 mg/kg): 4250 ng·h/mL
- AUC(0-t) ([10]; in vivo, po, 2 mg/kg): 8500 ng·h/mL
- bioavailability ([10]; in vivo, po, 2 mg/kg): 58.9%
- AUC(0-inf) ([10]; in vivo, po, 2 mg/kg): 9490 ng·h/mL
- Cmax ([10]; in vivo, po, 2 mg/kg): 390 ng/mL
- Tmax ([10]; in vivo, po, 2 mg/kg, Tmax): 4.67 h
- AUC(0-t) ([10]; in vivo, po, 6 mg/kg): 20200 ng·h/mL
- bioavailability ([10]; in vivo, po, 6 mg/kg): 46.6%
- AUC(0-inf) ([10]; in vivo, po, 6 mg/kg): 22800 ng·h/mL
- Cmax ([10]; in vivo, po, 6 mg/kg): 1080 ng/mL
- Tmax ([10]; in vivo, po, 6 mg/kg, Tmax): 5.33 h
- AUC(0-t) ([10]; in vivo, po, 20 mg/kg): 50400 ng·h/mL
- bioavailability ([10]; in vivo, po, 20 mg/kg): 34.9%
- Tmax ([10]; in vivo, po, 20 mg/kg, Tmax): 7.67 h
- Tmax ([10]; in vivo, po, 20 mg/kg, time to peak concentration (Tmax)): 4.6 to 7.7 h
- half-life ([10]; iv, 0.5 mg/kg, Dog, Iv. 0.5 mg/kg, read-out: t1/2 (converted)): 56.2 h
- half-life ([10]; po, 2 mg/kg, Dog, Po. 2.0 mg/kg, read-out: t1/2 (converted)): 51.1 h
- half-life ([10]; po, 6 mg/kg, Dog, Po. 6.0 mg/kg, read-out: t1/2 (converted)): 55.6 h
- half-life ([10]; po, 20 mg/kg, Dog, Po. 20.0 mg/kg, read-out: t1/2 (converted)): 57.6 h
- half-life ([10]; po, 20 mg/kg, beagle dogs, oral, range over doses of 2, 6, or 20 mg/kg, read-out: plasma half-life (t1/2)): 51 to 58 h
- LD50 ([11]; mouse, in vivo, read-out: LD50 (dose that caused at least 50% of mice to die)): > 3000 mg/kg
- tolerability at the administered doses ([11]; no adverse events were found): tolerated
- reduction in CFU compared with BDQ at 10 mg/kg ([12]; 10 mg/kg, P < 0.05): larger reduction in CFU than BDQ
- activity compared with BDQ at the equivalent dose ([12]; 20 mg/kg): no difference from that of BDQ
- culturable organisms in mouse lungs ([12]; daily 20 mg/kg monotherapy, 20 days): all culturable organisms’ clearance
- reduction of CFU in the lungs compared with 15 mg/kg RFP ([13]; chronic model, 5 mg/kg, 8-week treatment): superior
- activity compared with BDQ ([13]; chronic model, 5, 10, and 20 mg/kg orally, 8 weeks): slightly lower than BDQ, there was no significant difference in activity
- lung CFU after 8 weeks of treatment ([13]; chronic model, any dose (5, 10, 20 mg/kg)): declined
- mortality and moribundity ([14]; 200 mg/kg oral once daily, 14 days, male and female dogs): did not result in mortality and moribundity
- ECG: HR [14, 20]: Slowing of the heart rate
- ECG: QT interval [14, 20]: Physiologically appropriate lengthening of the QT interval
- ECG: RR/PR interval [14, 20]: Lengthening of the RR interval
- qualitative ECG changes associated with oral administration [14, 20]: no qualitative ECG changes
- effects on blood pressure, heart rate, or qualitative ECG parameters ([14]; dog, in vivo): no adverse effects
- cTnI ([14]; dog, in vivo, po, 200 mg/kg): no significant changes
- IC50 [15]: > 30 µM
- MBCs [16]: 0.313 µg/mL
- MBCs [17]: 2.500 µg/mL
